From patent US11254671B2, “Chemical compounds” (GLAXOSMITHKLINE INTELLECTUAL PROPERTY DEVELOPMENT LIMITED, priority 2017, dated 2022)
“And” between values parts separate entries of the source, which are not always exact repeats. Identical values can stand only once.

Columns and labels:
[1] = target: T1, mTOR (Homo sapiens, UniProt P42345); experiment: mTOR kinobeads assay (competition-binding assay); conditions: HuT-78 cell extract, endogenously expressed mTOR, bead-immobilized capturing ligand; mean of multiple experiments; read-out: mean pIC50, affinity for mTOR (converted)
T1 construct: capturing of endogenously expressed target proteins from cell extracts by a bead-immobilized capturing ligand; endogenous in cells; host or cells: HuT-78 cells (ECACC 88041901), cell lysate
Procedure: The affinity of test compounds for mTOR was determined in the mTOR kinobeads assay. This is a competition-binding assay based on the capturing of endogenously expressed target proteins from cell extracts by a bead-immobilized capturing ligand in presence of the test compound.
HuT-78 cells (European Collection of Authenticated Cell Cultures, 88041901) were cultured according to vendor's instructions. Frozen cell pellets were homogenized in 3× pellet volumes lysis buffer (50 mM Tris-HCl, 0.4% (v/v) Igepal-CA630, 5% glycerol, 150 mM NaCl, 1.5 mMMgCl2, 25 mM NaF, 1 mM sodium vanadate, 1 mM DTT, pH 7.5, supplemented with EDTA-free protease inhibitor tablet (Roche)). The sample was dispersed using a Dounce homogenizer, kept rotating for 30 min at 4° C., and centrifuged for 10 min at 20 000 g at 4° C. The supernatant was centrifuged again for 1 h at 145 000 g. The protein concentration was determined by Bradford assay (BioRad), aliquots were snap frozen in liquid nitrogen and stored at −80° C.
The capturing matrices were generated by derivatizing N-hydroxysuccinimide (NHS) activated Sepharose 4 beads (GE Healthcare) with the functionalized ligands Compound A and Compound C at a ligand density of 5 mM. Remaining NHS-groups were blocked with ethanolamine.
For the mTOR kinobeads assay the matrices were combined in a 1:1 ratio and equilibrated in DP buffer (50 mM Tris-HCl (pH 7.5), 0.4% (v/v) Igepal-CA630, 5% (v/v) glycerol, 150 mM NaCl, 1.5 mM MgCl2, 25 mM NaF, 1 mM Na3VO4, 1 mM dithiothreitol). All steps of the mTOR kinobeads assay were performed at 4° C. or on ice. The cell lysate was diluted with DP buffer to a final concentration of 5 mg/ml and a final detergent concentration of 0.4% (v/v) Igepal-CA630. For the assay 250 μg cell lysate and 2.5 μl capturing matrix per well (final assay volume: 75 μl) were incubated in the presence of test compounds in a 384-well filter plate (MultiScreenHTS HV Filter Plate, 0.45 μm, MZHVNOW50, Merck Millipore). Each plate contained 16 positive (100 μM Compound B) and 16 negative (2% v/v DMSO) control wells. Compounds were tested in a concentration-response applying 1:3 or 1:4 dilution steps for in total 11 data points. DMSO concentration was 2% (v/v). After 2 h incubation on an overhead shaker (Roto-Shake Genie, Scientific Industries Inc.) at 4° C. the non-bound fraction was removed by washing the beads with DP buffer. Proteins retained on the beads were eluted in SDS sample buffer (200 mM Tris (pH 7.4), 250 mM Trizma Base, 4% (w/v) SDS, 20% (v/v) glycerol, 0.01% (w/v) bromophenol blue, 50 mM dithiothreitol) into a collection plate (384 well polypropylene microplate, V-shape, Greiner, 781 280). Eluates were spotted on nitrocellulose membranes (400 nl per spot) using an automated pin-tool liquid transfer (Biomek FX, Beckman). After drying, the membranes were rehydrated in 20% (v/v) ethanol and blocked by incubation with Odyssey blocking buffer (LICOR, 927-40000) for 1 h at room temperature. Blocked membranes were incubated overnight at 25° C. with Odyssey blocking buffer supplemented with a specific anti-mTOR antibody (Cell Signaling, 2972; 1:500) and 0.4% TWEEN-20. Then the membranes were washed in PBST buffer and incubated for 60 minutes at room temperature with the detection antibody (IRDye™ labelled antibody from LI-COR) diluted in Odyssey blocking buffer (LICOR 927-40000) containing 0.2% TWEEN-20. Then the membranes were washed with PBST and finally rinsed twice with PBS buffer to remove residual Tween-20. The membranes were then scanned with the Odyssey® Infrared Imaging System (LI-COR Biosciences). Fluorescence signals were recorded and analyzed according to the instructions of the manufacturer. Concentration response curves were computed with the software Activity Base. All data were normalized to the mean of 16 high (negative control) and 16 low (positive control) control wells on each plate. […]

[2] = tested on: phosphorylated Akt at serine 473 (pAKTs473) in primary human lung fibroblasts; experiment: Highthroughput phosphorylated Akt (Ser473) in vitro immunoassay (MSD); format: cell-based; conditions: Fibroblast, 1 h compound, PDGF-BB 10 ng/ml for 10 min, mean of multiple experiments, read-out: mean pIC50, inhibition of pAkt (Ser473) (converted)
Source text: Highthroughput Phosphorylated Akt (Ser473) In Vitro Immunoassay
Immunoassay to measure effect of test compounds on phosphorylated Akt at serine 473 (pAKTs473) in primary human lung fibroblasts (Lonza Group Ltd, Basel, Switzerland, Catalogue No. CC-2512) using the MesoScale Discovery (MSD) platform to quantify levels of total Akt and pAKTser473.
Human lung fibroblasts were routinely maintained in fibroblast basal medium supplemented with 2% foetal bovine serum (FBS), 0.1% human fibroblast growth factor (FGF)-B, 0.1% insulin, 0.1% GA-100 (Lonza Group Ltd, Basel, Switzerland, Catalogue No. CC-3132) at 37° C. in 5% CO2 according to the manufacturer's protocol.
For the assay, cells were harvested using Trypsin/EDTA, (Lonza Group Ltd, Basel, Switzerland, Catalogue No. CC-5012), at working concentration of 0.025%, resuspended to give 3×10^5 cells/ml and 50 ul/well seeded into 384-well plates (Greiner Group, Kremsmunster, Austria, Catalogue No. 781091) in media containing 0.4% FBS and incubated o/n at 37° C. in 5% CO2.
Test compounds were dissolved in 100% DMSO to give 10 mM stock solutions and serially diluted to generate an 11-point concentration response curve. Compound were further diluted by […] into 384-well V-bottom polypropylene plates (Greiner Group, Kremsmunster, Austria, Catalogue No. 781280) with media containing 0.4% FBS to give 50 μM top compound concentration in 0.5% DMSO.
Compounds were transferred to 384-well plates contacting cells (0.1% DMSO final) and incubated for 1 h at 37° C. in 5% CO2, prior to stimulation with platelet-derived growth factor (PDGF)-BB (R&D Systems, Catalogue No. 220-BB) at 10 ng/ml (final) for 10 min at RT. Cell assay plates were incubated on ice and treated with lysis buffer (Cell Signalling Technology, Catalogue No. 9806) containing protease and phosphatase inhibitors (Thermo Scientific, Catalogue No. 78444) followed by shaking for 30 min at 4° C.
MSD plates (MSD, MA6000 384-well GAR plate, Catalogue No. L21RA-2) were blocked with blocking buffer containing TBS (MSD, Cat. No. R61TX-1) with 0.5% bovine serum albumin (BSA) (Sigma Aldrich, Cat. No. A7906), 0.1% tween-20 (Sigma Aldrich, Catalogue No. P2287) and coated with rabbit-anti-human pAkt (s473) ab (Cell Signalling Technology, Catalogue No. CST #4060) at RT with shaking, followed by washing (×3) with 1×TBS wash reagent containing 0.1% Tween-20. Cell lysates (30 ul) were added and MSD plates centrifuged at 1000 rpm at 4° C. o/n.
Plates were washed with 1×TBS wash buffer (×3), prior to addition of mouse-anti-human-total Akt ab (1 mg/ml) (Upstate (Milipore), Catalogue No. 05-591) in blocking buffer and shaken at RT for 1 h. After washing with 1×TBS wash buffer (×3), plates were incubated with goat-anti-mouse SULFO-TAG detection ab (MSD, Catalogue No. R32AC-1) (1:500 in blocking buffer) for 1 h at RT. Plates were washed with 1×TBS (×3) and read buffer (2×) (MSD, Catalogue No. R92TC-1) added before detecting electrochemiluminescence (MSD Sector Imager 6000).
Data analysis was performed by determining % inhibition values for test compounds relative to the minimum (+PDGF-BB stimulation) and maximum responses (no PDGF-BB stimulation) with non-linear regression analysis to determine IC50 values for test compounds.

[3] = tested on: type I collagen deposition in primary lung fibroblasts; experiment: Highthroughput type I collagen deposition (scar-in-a-jar) high content screening assay; format: cell-based; conditions: Homo sapiens, Primary lung fibroblast, 72 h, human pulmonary fibroblasts, TGF-β 1 ng/ml, Ficoll crowding, mean of multiple experiments, read-out: mean pIC50, inhibition of type I collagen deposition (converted)
Procedure: Example 53 Highthroughput Type I Collagen Deposition (Scar-in-a-Jar) High Content Screening Assay
Highthroughput, cellular type I collagen deposition was measured by adapting a published method; scar-in-a-jar (Chen et al., 2009) to primary lung fibroblasts derived from human tissue and combining with high content analysis to permit fluorescent quantification of collagen deposited in the extracellular matrix (ECM). The human biological samples were sourced ethically and their research use was in accord with the terms of the informed consents
Test compounds were dissolved in 100% DMSO to give 10 mM (stocks) and further diluted to give half log dilutions to generate an 11 point concentration response curve. 1 ul was transferred to 384-well plates (Greiner Group, Kremsmunster, Austria, Catalogue No Greine 781280r).
Human pulmonary fibroblasts were maintained in DMEM media (Gibco, Catalogue No 21969) supplemented with 4 mM L-glutamine (Gibco Catalogue No 25030-024) and 10% heat inactivated FBS (Gibco, Catalogue No 10099-141) at 37° C. in 10% CO2. Cells were harvested and resuspended at 4×10^6 cells/ml in a T175 cell culture flask (BD Falcom, Catalogue No: 353112) containing 50 mL of culture media. After 4 days 37° C. in 10% CO2, cells were harvested and seeded at 4000 cells per well (50 μL/well) into 384-well plates (BD Falcon, Catalogue No 353962Greiner) in assay media (0.4% heat inactivated FBS, 4 mM L-glutamine). Plates were sealed with breathable seals (Sigma, Catalogue No. BEM-1). Assay plates were incubated for 72 h at 37° C. in 10% CO2.
Assay media was supplemented with 112.5 mg/ml Ficoll 70 (Sigma, Catalogue No F2878), 75 mg/ml Ficoll 400 (Sigma, Catalogue No F4375) and 50 μg/ml ascorbic acid (Sigma, Catalogue No A8960). 30 μL assay media were added to 1 μl compound (37 μM compound concentration in 1% DMSO). Diluted compounds (10 μL) were transferred to plates containing cells and incubated for 3 h at 37° C. in 10% CO2. Transforming growth factor (TGF)-β (R&D systems, Catalogue No 100-B/CF) was reconstituted to give 10 μg/mL (stock) and further diluted in assay media containing Ficoll and ascorbic acid (1 in 3333). TGF-β was added to cell plates (1 ng/ml final) and cells incubated for 72 h at 37° C. in 10% CO2.
Media was aspirated from cells and 30 μL/well 100% ice-cold methanol added and incubated at RT for 5 min to fix cells. Methanol was aspirated and cells washed with PBS (3×). To block and permeabilise, cells were incubated with PBS containing 1% BSA and 0.1% Triton X 100 for 20 min, followed by PBS wash (3×). Cells were incubated with mouse anti human type I collagen monoclonal antibody (Sigma, Catalogue No C2456) diluted 1:1000 in PBS for 24 h at 4° C. Cells were washed with PBS containing 0.1% Tween-20 (3×) and incubated with secondary alexa fluor 488 goat-anti-mouse antibody (Invitrogen, Catalogue No A11001, 1 in 500 in PBS) and Hoechst 33342 (Sigma, Catalogue No H21492), 1 in 1000 in PBS) for 1 h at RT, prior to washing with PBS containing 0.1% Tween (×4).
Type I collagen immunoreactivity was detected using the INCell 2000 Analyzer (GE Healthcare, INcell 2000) set to excitation and emission wavelengths for DAPI and FITC with laser focus and exposure adjusted to appropriate levels. Images were imported and analysed using Columbus software (Perkin Elmer) and computational algorithms to quantify “total collagen area” and “cell count”.
Data analysis was performed by determining % inhibition values for test compounds relative to the minimum (media only) and maximum responses (TGF-βstimulation) with non-linear regression analysis to determine IC50 values for test compounds.

| IC50 [1] | SMILES | IC50 [2] [nM] | IC50 [3] [nM] |
| --- | --- | --- | --- |
| 2.51 to 31.6 nM and 2.51 to 316 nM | CC[C@H]1COCCN1c1cc(C2(S(C)(=O)=O)CCNCC2)cc(-c2ccc3[nH]c(CO)cc3n2)n1 [Example 36] | 3.16 to 316 | – |
| – | CCCC1COCCN1c1cc(CS(C)(=O)=O)cc(-c2ccc3[nH]c(CNC)cc3n2)n1 (stereo not shown) [Example 48, ({5-[4-(methanesulfonylmethyl)-6-(3-propylmorpholin-4-yl)pyridin-2-yl]-1H-pyrrolo[3,2-b]pyridin-2-yl}methyl)(methyl)amine] | 3.16 to 316 | 39.8 to 1000 |
